Experimental data taken from US20080103191A1, “ENTACAPONE-DERIVATIVES” (priority 2006, published 2008).
In brackets after ≈: the same amount, converted by molar mass. Like-named read-outs stand apart in the source and are kept apart here.

Assays:
[1] = Permeability in Caco-2 cells, apical to basolateral; format: in vitro ADME; design: dose or concentration left out as unconfirmed; conditions: human; 21d Caco-2 monolayer, apical pH 6.5 to basolateral pH 7.4, 60 minutes
Excerpt: The human adenocarcinoma cell line Caco-2 is used as an in vitro system to predict oral absorption. These cells serve as a model of small bowel tissue and permeation through these cells is a predictor for gastro-intestinal absorption. Further to being a model for oral absorption, permeability in Caco-2 cells may be predictive for the blood brain barrier permeability (P. Garberg et al.; Toxicology in vitro 19 (2005); 299-334). […] The permeability in Caco-2 cells has been tested by the following method:
The permeability of selected compounds of formula I across Caco-2 (21d Caco-2-culture) monolayer in the apical to basolateral direction is investigated. Control substances were ^3H-propranolol and ^3H-mannitol.
The nominal concentration of the test items is […]. The pH value is set to 6.5 for the apical transport medium and to 7.4 for the basolateral medium. Samples are obtained following 60 minutes (120 minutes for control samples) incubation from the basolateral receiver chamber. At sampling time approximately 600 μL of each well are transferred into an eppendorf vial and stored between −12° and −30° C. until HPLC or LC-MS/MS analysis. The control substances are quantified by liquid scintillation.

[2] = Chemical hydrolysis stability at pH 1 and pH 7.4 (HPLC); format: physicochemical; conditions: 37° C., over 12 h
Experimental: The stability of compounds of the present invention is tested at pH 1 and at pH 7.4. The testing is carried out by the following HPLC method:
Chemical hydrolysis rates t1/2 [h] of selected compounds of formula I are determined in 0.1 N HCl (pH 1) and PBS buffer (pH 7.4) solution. Solutions are prepared by dissolving an appropriate amount of compound in 0.1 N HCl and PBS buffer solution. Samples were withdrawn at designated time intervals and analysed for remaining prodrug by HPLC at 37° C. over 12 h.
Reversed phase gradient HPLC method, column YMC Pro C8, 50 mm×4.0 mm, 3 μm, Eluent A: Water:trifluoroacetic acid (100:0.5 (v/v)), Eluent B: Acetonitrile:trifluoroacetic:acid (100:0.5 (v/v)). Column temperature 30° C., Flow rate 3.0 mL/min, Detection wavelength: 220 nm
For evaluation, the peak area of the respective compound from the first injection is defined as 100% relative concentration. The peak areas of all other subsequent injections are calculated in percentage relating to this standard. (relative concentration in %). The relative concentrations are plotted in a logarithmic scale (ln) against the injection times. Based on the assumption of a first order kinetic, the rate constant and half life times (t1/2 [h]) can be calculated.

[3] = Log D (pH 7.4) by isocratic HPLC; format: physicochemical; conditions: YMC Pro C18 column, phosphate buffer pH 7.4/acetonitrile 45/55
Experimental: LogD is an indicator for absorption and lipophilicity for ionized compounds under defined pH conditions and is measured by applying an isocratic HPLC Method at pH 7.4.
The log D has been tested at pH 7.4. The testing has been carried out by the following method: Isocratic HPLC method: Column YMC Pro C18, 150 mm×4.0 mm, 3 μm, Eluent Phosphate buffer pH 7.4/acetonitrile (45/55, (v/v)), Runtime 15-60 min, Flow rate 1.2 ml/min, Detection wavelength: 220 nm

Plasma stability ex vivo = format: in vitro ADME; conditions: human plasma, 37° C., read-out: t1/2 plasma
Experimental: Plasma stability is determined in human and rat plasma ex vivo. For the determination of the plasma stability of the compounds of formula I, the test compounds were incubated with human plasma (c=5 μg/mL) at 37° C. for certain time intervals up to 60, resp. 120 min (depending on the compound). Afterwards the incubations were stopped by equivalent addition of acetonitrile for protein precipitation, and the samples were mixed and centrifuged. The supernatants were adequately diluted and analyzed by HPLC with UV detection at 305 nm.
The degradation of the compounds of formula I as well as the formation of the active drug entacapone were monitored, and the half-life times of the compounds of formula I were calculated from the obtained peak areas.

[4] = Solubility in 0.1 N HCl, PBS buffer, FaSSIF and FeSSIF; format: physicochemical; conditions: thermodynamic from solid, ambient temperature
Experimental: For testing solubility, saturated solutions of selected compounds of formula I are prepared in four different systems and compared to the solubility of entacapone. The solubility is tested in 0.1 N HCl (pH 1), PBS buffer (pH 7.4) and in two simulated gastric fluids, FaSSIF at pH 6.5 (for fasting state) and FeSSIF at pH 5.0 (for fed state) at ambient temperature. The content of the FaSSIF simulated gastric fluid is as follows:
The solubility testing is carried out by the following method: An excess amount of each compound is added to a 0.1 N HCl, PBS buffer, FeSSIF and FaSSIF. The suspensions are shaken for 10 min. After centrifugation the concentration is determined by HPLC. Reversed phase gradient HPLC method, column YMC Pro C8, 50 mm×4.0 mm, 3 μm, Eluent A: Water:trifluoroacetic acid (100:0.5 (v/v)), Eluent B: Acetonitrile:trifluoroacetic:acid (100:0.5 (v/v)). Column temperature 30° C., Flow rate 3.0 mL/min, Detection wavelength: 220 nm

[5] = pH 1, 0.1 N HCl, read-out: t1/2 at pH 1 (converted)
[6] = pH 7.4, PBS buffer, read-out: t1/2 at pH 7.4 (converted)
[7] = 0.1 N HCl, pH 1, simulated gastric fluid, shaken 10 min, read-out: Solubility 0.1N HCl Ph 1.0
[8] = FaSSIF, pH 6.5, fassif, fasting state fluid, read-out: Solubility FaSSIF Ph 6.5
[9] = FeSSIF, pH 5, fessif, fed state fluid, read-out: Solubility FeSSIF Ph 5.0
[10] = PBS buffer, pH 7.4, aqueous buffer, read-out: Solubility PBS Ph 7.4

Papp A→B at 60 min [1] [×10⁻⁶ cm/s] | half-life [2, 5] [h] | half-life [2, 6] [h] | chromatographic logD [3] | half-life at 5 μg/mL (Plasma stability ex vivo) [min] | solubility at 10 min [4, 7] [µg/mL] | solubility at 10 min [4, 8] [µg/mL] | solubility at 10 min [4, 9] [µg/mL] | solubility at 10 min [4, 10] [µg/mL] | Structure (SMILES)
 | 4.1 | < 1 | 1 |  | > 1000 | > 1000 | > 1000 | > 1000 | CCN(CC)CCOC(=O)Oc1cc(/C=C(\C#N)C(=O)N(CC)CC)cc([N+](=O)[O-])c1O [Compound 55, Carbonic acid 5-((E)-2-cyano-2-diethylcarbamoyl-vinyl)-2-hydroxy-3-nitro-phenyl ester 2-diethylamino-ethyl ester]
8.5 | 16.5 | 4.1 | 1 | 1 |  |  |  |  | C=CCOC(=O)Oc1cc(/C=C(\C#N)C(=O)N(CC)CC)cc([N+](=O)[O-])c1O [Compound 65, Carbonic acid allyl ester 5-((E)-2-cyano-2-diethylcarbamoyl-vinyl)-2-hydroxy-3-nitro-phenyl ester]
 | 7.8 | 21.4 | 2.6 |  |  | 150 (≈ 331 µM) | 20 (≈ 44.1 µM) | 340 (≈ 750 µM) | CCN(CC)C(=O)/C(C#N)=C/c1cc(OC(=O)OC(C)c2ccccc2)c(O)c([N+](=O)[O-])c1 (centres unmarked) [Compound 137, Carbonic acid 5-((E)-2-cyano-2-diethylcarbamoyl-vinyl)-2-hydroxy-3-nitro-phenyl ester 1-phenyl-ethyl ester]
14.6 |  |  |  |  |  |  |  |  | CCOC(=O)CC(C)OC(=O)Oc1cc(/C=C(\C#N)C(=O)N(CC)CC)cc([N+](=O)[O-])c1O (centres unmarked) [Compound 34, 3-[5-((E)-2-Cyano-2-diethylcarbamoyl-vinyl)-2-hydroxy-3-nitro-phenoxycarbonyloxy]-butyric acid ethyl ester]
4.9 | 12.8 | 3 | 1.1 |  | 10 (≈ 24.9 µM) | 910 (≈ 2270 µM) | 430 (≈ 1070 µM) | 850 (≈ 2120 µM) | C#CCCOC(=O)Oc1cc(/C=C(\C#N)C(=O)N(CC)CC)cc([N+](=O)[O-])c1O [Compound 83, Carbonic acid but-3-ynyl ester 5-((E)-2-cyano-2-diethylcarbamoyl-vinyl)-2-hydroxy-3-nitro-phenyl ester]
 | 15.3 | 3.4 | 0.9 |  | 20 (≈ 41.4 µM) | 960 (≈ 1990 µM) | 710 (≈ 1470 µM) | 970 (≈ 2010 µM) | CCN(CC)C(=O)/C(C#N)=C/c1cc(OC(=O)OCc2ccc3c(c2)OCO3)c(O)c([N+](=O)[O-])c1 [Compound 131, Carbonic acid benzo[1,3]dioxol-5-ylmethyl ester 5-((E)-2-cyano-2-diethylcarbamoyl-vinyl)-2-hydroxy-3-nitro-phenyl ester]
14.8 | 12.8 | 14.4 | 2.8 | 2.8 |  |  |  |  | CCN(CC)C(=O)/C(C#N)=C/c1cc(OC(=O)OC2CC3CCC2(C)C3(C)C)c(O)c([N+](=O)[O-])c1 (centres unmarked) [Compound 67, Carbonic acid 5-((E)-2-cyano-2-diethylcarbamoyl-vinyl)-2-hydroxy-3-nitro-phenyl ester 1,7,7-trimethyl-bicyclo[2.2.1]hept-2-yl ester]
 | 11 | 12.2 | 1.7 |  | 30 (≈ 73.6 µM) | 630 (≈ 1550 µM) | 250 (≈ 614 µM) | 830 (≈ 2040 µM) | CCN(CC)C(=O)/C(C#N)=C/c1cc(OC(=O)OCC(=O)O)c(O)c([N+](=O)[O-])c1 [Compound 146, [5-((E)-2-Cyano-2-diethylcarbamoyl-vinyl)-2-hydroxy-3-nitro-phenoxycarbonyloxy]-acetic acid]

More lines, now with the values behind:

Structure (SMILES) | Papp A→B at 60 min [1] [×10⁻⁶ cm/s] | half-life [2, 5] [h] | half-life [2, 6] [h] | chromatographic logD [3] | half-life at 5 μg/mL (Plasma stability ex vivo) [min] | solubility at 10 min [4, 7] [µg/mL] | solubility at 10 min [4, 8] [µg/mL] | solubility at 10 min [4, 9] [µg/mL] | solubility at 10 min [4, 10] [µg/mL]
CCN(CC)C(=O)COC(=O)Oc1cc(/C=C(\C#N)C(=O)N(CC)CC)cc([N+](=O)[O-])c1O [Compound 18, Carbonic acid 5-((E)-2-cyano-2-diethylcarbamoyl-vinyl)-2-hydroxy-3-nitro-phenyl ester diethylcarbamoylmethyl ester] | < 5.1 |  |  |  |  |  |  |  | 
CCN(CC)C(=O)/C(C#N)=C/c1cc(OC(=O)OCc2ccc([N+](=O)[O-])cc2)c(O)c([N+](=O)[O-])c1 [Compound 27, Carbonic acid 5-((E)-2-cyano-2-diethylcarbamoyl-vinyl)-2-hydroxy-3-nitro-phenyl ester 4-nitro-benzyl ester] | 18.1 | 3.4 | 1.6 | > 8 | > 8 |  |  |  | 
CCN(CC)C(=O)/C(C#N)=C/c1cc(OC(=O)OC(C)(C)C(=O)OC)c(O)c([N+](=O)[O-])c1 [Compound 20, 2-[5-((E)-2-Cyano-2-diethylcarbamoyl-vinyl)-2-hydroxy-3-nitro-phenoxycarbonyloxy]-2-methyl-propionic acid methyl ester] | 11.7 |  |  |  |  |  |  |  | 
CCN(CC)C(=O)/C(C#N)=C/c1cc(OC(=O)OCC2COC(C)(C)O2)c(O)c([N+](=O)[O-])c1 (centres unmarked) [Compound 12, Carbonic acid 5-((E)-2-cyano-2-diethylcarbamoyl-vinyl)-2-hydroxy-3-nitro-phenyl ester 2,2-dimethyl-[1,3]dioxolan-4-ylmethyl ester] | 2.3 | < 1 | 2.8 |  |  |  |  |  | 
CCN(CC)C(=O)/C(C#N)=C/c1cc(OC(=O)OCc2ccccc2)c(O)c([N+](=O)[O-])c1 [Compound 11, Carbonic acid benzyl ester 5-((E)-2-cyano-2-diethylcarbamoyl-vinyl)-2-hydroxy-3-nitro-phenyl ester] |  | 3 | 4.1 | 1.6 |  | 150 (≈ 341 µM) | 80 (≈ 182 µM) | 20 (≈ 45.5 µM) | 280 (≈ 637 µM)
CCCCCOC(=O)Oc1cc(/C=C(\C#N)C(=O)N(CC)CC)cc([N+](=O)[O-])c1O [Compound 6, Carbonic acid 5-((E)-2-cyano-2-diethylcarbamoyl-vinyl)-2-hydroxy-3-nitro-phenyl ester pentyl ester] | < 5.1 |  |  |  |  |  |  |  | 
CCOC(=O)C(C)(C)OC(=O)Oc1cc(/C=C(\C#N)C(=O)N(CC)CC)cc([N+](=O)[O-])c1O [Compound 26, 2-[5-((E)-2-Cyano-2-diethylcarbamoyl-vinyl)-2-hydroxy-3-nitro-phenoxycarbonyloxy]-2-methyl-propionic acid ethyl ester] | < 5.1 |  |  |  |  |  |  |  | 
